Measured values taken from patent US11672786B2, “Methods of treating diseases associated with repeat instability” (The Hospital for Sick Children, priority 2016, dated 2023).

Assays:
[1] = test system: plasmids pDM79EF, pDM79HF, pKN16 with SV40 origin of replication; assay: in vitro SV40 replication assay by HeLa cell extracts; type: biochemical, human; conditions: NA 7.5 μM or 15 μM
Experimental: Three circular plasmids containing the SV40 origin of replication, and an expanded (CAG)79●(CTG)79 repeat tract (pDM79EF and pDM79HF) or no repeats (pKN16), were replicated in vitro by human HeLa cell extracts and added recombinant SV40 T-Ag, without or with NA (7.5 μM or 15 μM) treatment. […] Replication products were purified and linearized with BanHI. An equal portion of the reaction material was also digested with BamHI and DpnI; DpnI digests un-replicated and partially-replicated material, as shown in the schematic (top figure).
These templates containing repeats (pDM79EF and pDM79HF) and another substrate with SV40-ori and no-repeats (pKN16) were replicated in vitro by HeLa cell extract adding [α-^32P]dCTP and T-Antigen, as described in detail in Panigrahi et al. (2002, J. Biol. Chem., 277:13926-34) and Cleary et al. (2002, Nat. Genet., 31(1):37-46). Replication reaction was performed without or with NA (7.5 μM and 15 μM). Radioactive replication products were purified, linearized with BamHI, and treated with DpnI (for details see FIG. 9). […] Equal quantities of reaction products were resolved by electrophoresis on a 15-cm 1% agarose gel. The gel was run for 16 h at 4 V/cm in TBE buffer, dried, and exposed to Kodak film.

[2] = test system: mouse striatum; assay: histological study of mouse striatum, H&E staining; type: in vivo; conditions: NA in saline injected into striatum
[3] = test system: CAG/CTG R-loops processed by neuron-like human SH-SY5Y cell extracts; assay: R-loop processing by SH-SY5Y cell extracts, STRIP assay; type: biochemical; conditions: NA 50 μM; p=0.002
Experimental: Double-R-loops were then treated with RNaseA or H (labeled “A” or “H”) and incubated with 50 μM of NA. Reaction products were then resolved on 1% agarose gel. […] Pre-formed double-R-loops were processed by terminally differentiated (retinoic acid) human neuron-like cell extracts (SH-SY5Y) in the absence or presence of NA (50 μM), as described and DNA repeat lengths were assessed as expansions, contractions, or stable, by the STRIP assay. […] Transcription products were isolated, processed and transformed in E. coli cells, previously shown to stably maintain the (CAG)79●(CTG)79 lengths. Plasmids isolated from individual bacterial colonies were digested with restriction enzymes to release the repeat containing fragment, resolved on 4% polyacrylamide gels and scored for instability.
R-loop templates prepared from in vitro transcription and RNase A treatments were incubated with NA and then processed by extracts of HeLa or SH-SY5Y neuroblastoma cells, where the latter were terminally differentiated by retinoic acid, as previously described (Panigrahi et al., 2005, Nat. Struct. & Mol. Biol., 12:654-62). […] Miniprep DNA was analyzed for changes in repeat length by analysis of the repeat-containing fragment on 4% polyacrylamide gels. […]

[4] = test system: long (CTG)20 slip-outs from (CAG)30●(CTG)50; assay: band-shift NA-DNA binding, long (CTG)20 slip-out; design: species or system human; conditions: NA 0.15-50 μM, 4% polyacrylamide gel
Text: FIG. 2 are the results of experiments showing that NA binds to long CAG slip-outs. […] The (CAG)n DNA sequence (left) can fold into an hairpin structure involving mismatched A-A pair flanking C-G base pairs (middle). NA molecules can intercalate into the DNA helix, with the 2-amino-1,8-naphthyridine moiety (in red) hydrogen bonding to guanine and 8-azaquinolone moiety (in blue) hydrogen bonding to adenine. […] Long slip-outs extruded as a single slip-out from a fully base-paired backbone of (CTG)n●(CAG)n, as described (Pearson et al., 2002, Nuc. Acids Res., 30:4534-47). DNAs were mixed with increasing concentrations of NA (0.15 μM, 0.75 μM, 7.5 μM and 50 μM) and resolved on 4% polyacrylamide gels. All lanes are from the same gel, and they were separated for clarity. NA-DNA complexes are shown by brackets, free DNA is indicated by arrowheads. […] The relative migration was measured for the linear and the three slip-outs substrates as the ratio of the migration distance of each NA-DNA complex to the migration distance of the free DNA. The migration distance was measured from the well to a consistent center point of each band. […]

[5] = test system: CAG-CAG; conditions: cited from earlier work
[6] = test system: d(CAG)10; conditions: ESI-TOF MS; cited from earlier work

## naphthyridine-azaquinolone
[1]
  effect on replication efficiency and replication fork progression: does not affect replication efficiency or replication fork progression
[2]
  brain morphology: did not alter brain morphology
[3]
  effect on R-loop processing products (contractions, expansions): significantly increasing the number of contraction products but not expansion products
[4]
  NA binding (band-shift): not bound
[5]; estimated
  affinity of each NA molecule/CAG-CAG as Ka: 1.8e+06 M⁻¹
[5]; estimated, read-out: affinity of each NA molecule/CAG-CAG as Kd
  Kd: 560 nM
[5]; previously estimated binding stoichiometry
  ratio of NA molecules to 1 CAG-CAG: 2
[6]
  number of NA molecules bound to the repeat: at least 6 NA molecules
